Where two headings read alike, the source gives them in different places.
How the values were obtained:
[1] = tested on: mRNA expressed from the genes (A) to (D) in rat liver; assay: Behavior of genes (mRNA expression level, oligo-DNA microarray) in rat liver after 28-day oral administration; type: in vivo; details: mRNA vs vehicle control group; for Behavior of gene caused by administration of chemical substance, Gene No. 4846 / Behavior of gene caused by administration of chemical substance, Gene No. 2026 / Behavior of gene caused by administration of chemical substance, Gene No. 4218 / Behavior of gene caused by administration of chemical substance, Gene No. 6182 / Behavior of gene caused by administration of chemical substance, Gene No. 5600: gene group (A); for Behavior of gene caused by administration of chemical substance, Gene No. 4846: Unigene No. Rn.144554; for Behavior of gene caused by administration of chemical substance, Gene No. 2026 / Behavior of gene caused by administration of chemical substance, Gene No. 4218: Unigene No. Rn.167075; for Behavior of gene caused by administration of chemical substance, Gene No. 6182: Unigene No. Rn.5834; for Behavior of gene caused by administration of chemical substance, Gene No. 5600: Unigene No. Rn.9836; for Behavior of gene caused by administration of chemical substance, Gene No. 1494 / Behavior of gene caused by administration of chemical substance, Gene No. 2045 / Behavior of gene caused by administration of chemical substance, Gene No. 2203: gene group (B); for Behavior of gene caused by administration of chemical substance, Gene No. 1494: Unigene No. Rn.1430; for Behavior of gene caused by administration of chemical substance, Gene No. 2045: Unigene No. Rn.19329; for Behavior of gene caused by administration of chemical substance, Gene No. 2203: Unigene No. Rn.21240; for Behavior of gene caused by administration of chemical substance, Gene No. 533 / Behavior of gene caused by administration of chemical substance, Gene No. 725 / Behavior of gene caused by administration of chemical substance, Gene No. 1163 / Behavior of gene caused by administration of chemical substance, Gene No. 4973 / Behavior of gene caused by administration of chemical substance, Gene No. 4095 / Behavior of gene caused by administration of chemical substance, Gene No. 1334 / Behavior of gene caused by administration of chemical substance, Gene No. 6620 / Behavior of gene caused by administration of chemical substance, Gene No. 6303 / Behavior of gene caused by administration of chemical substance, Gene No. 5878 / Behavior of gene caused by administration of chemical substance, Gene No. 1131 / Behavior of gene caused by administration of chemical substance, Gene No. 1562 / Behavior of gene caused by administration of chemical substance, Gene No. 1741 / Behavior of gene caused by administration of chemical substance, Gene No. 893 / Behavior of gene caused by administration of chemical substance, Gene No. 6026 / Behavior of gene caused by administration of chemical substance, Gene No. 154 / Behavior of gene caused by administration of chemical substance, Gene No. 1993 / Behavior of gene caused by administration of chemical substance, Gene No. 813 / Behavior of gene caused by administration of chemical substance, Gene No. 2494 / Behavior of gene caused by administration of chemical substance, Gene No. 2546 / Behavior of gene caused by administration of chemical substance, Gene No. 3776 / Behavior of gene caused by administration of chemical substance, Gene No. 3929 / Behavior of gene caused by administration of chemical substance, Gene No. 1119 / Behavior of gene caused by administration of chemical substance, Gene No. 6742 / Behavior of gene caused by administration of chemical substance, Gene No. 5634: gene group (C); for Behavior of gene caused by administration of chemical substance, Gene No. 533: Unigene No. Rn.106184; for Behavior of gene caused by administration of chemical substance, Gene No. 725: Unigene No. Rn.108075; for Behavior of gene caused by administration of chemical substance, Gene No. 1163: Unigene No. Rn.11766; for Behavior of gene caused by administration of chemical substance, Gene No. 4973: Unigene No. Rn.118529; for Behavior of gene caused by administration of chemical substance, Gene No. 4095: Unigene No. Rn.119024; for Behavior of gene caused by administration of chemical substance, Gene No. 1334 / Behavior of gene caused by administration of chemical substance, Gene No. 6620: Unigene No. Rn.120914; for Behavior of gene caused by administration of chemical substance, Gene No. 6303: Unigene No. Rn.123063; for Behavior of gene caused by administration of chemical substance, Gene No. 5878: Unigene No. Rn.143213; for Behavior of gene caused by administration of chemical substance, Gene No. 1131: Unigene No. Rn.144946; for Behavior of gene caused by administration of chemical substance, Gene No. 1562: Unigene No. Rn.14744; for Behavior of gene caused by administration of chemical substance, Gene No. 1741: Unigene No. Rn.1647; for Behavior of gene caused by administration of chemical substance, Gene No. 893: Unigene No. Rn.164817; for Behavior of gene caused by administration of chemical substance, Gene No. 6026: Unigene No. Rn.167685; for Behavior of gene caused by administration of chemical substance, Gene No. 154: Unigene No. Rn.185941; for Behavior of gene caused by administration of chemical substance, Gene No. 1993: Unigene No. Rn.18728; for Behavior of gene caused by administration of chemical substance, Gene No. 813: Unigene No. Rn.201760; for Behavior of gene caused by administration of chemical substance, Gene No. 2494: Unigene No. Rn.23969; for Behavior of gene caused by administration of chemical substance, Gene No. 2546: Unigene No. Rn.24561; for Behavior of gene caused by administration of chemical substance, Gene No. 3776: Unigene No. Rn.43232; for Behavior of gene caused by administration of chemical substance, Gene No. 3929: Unigene No. Rn.4620; for Behavior of gene caused by administration of chemical substance, Gene No. 1119: Unigene No. Rn.9757; for Behavior of gene caused by administration of chemical substance, Gene No. 6742: Unigene No. Rn.9779; for Behavior of gene caused by administration of chemical substance, Gene No. 5634: Unigene No. Rn.9862; for Behavior of gene caused by administration of chemical substance, Gene No. 5726: gene group (D), Unigene No. Rn.9939
How it was run: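 Oral gavage, once daily × 28 days; male F344 SPF rats, 5 wk, n=4/group; vehicle controls given equal solvent volume. Liver excised day 28, total RNA purified. Significance: ≥1.5× or ≤1/1.5 of vehicle, direction concordant with other carcinogens.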

[2] = tested on: liver; details: cited from earlier work
[3] = tested on: rodent; details: cited from earlier work
[4] = classification of the substance (M+/M−); cited from earlier work

Row | Compound | Behavior of gene caused by administration of chemical substance, Gene No. 4846 [1] | Behavior of gene caused by administration of chemical substance, Gene No. 2026 [1] | Behavior of gene caused by administration of chemical substance, Gene No. 4218 [1] | Behavior of gene caused by administration of chemical substance, Gene No. 6182 [1] | Behavior of gene caused by administration of chemical substance, Gene No. 5600 [1] | Behavior of gene caused by administration of chemical substance, Gene No. 1494 [1] | Behavior of gene caused by administration of chemical substance, Gene No. 2045 [1] | Behavior of gene caused by administration of chemical substance, Gene No. 2203 [1] | Behavior of gene caused by administration of chemical substance, Gene No. 533 [1] | Behavior of gene caused by administration of chemical substance, Gene No. 725 [1] | Behavior of gene caused by administration of chemical substance, Gene No. 1163 [1] | Behavior of gene caused by administration of chemical substance, Gene No. 4973 [1] | Behavior of gene caused by administration of chemical substance, Gene No. 4095 [1] | Behavior of gene caused by administration of chemical substance, Gene No. 1334 [1] | Behavior of gene caused by administration of chemical substance, Gene No. 6620 [1] | Behavior of gene caused by administration of chemical substance, Gene No. 6303 [1] | Behavior of gene caused by administration of chemical substance, Gene No. 5878 [1] | Behavior of gene caused by administration of chemical substance, Gene No. 1131 [1] | Behavior of gene caused by administration of chemical substance, Gene No. 1562 [1] | Behavior of gene caused by administration of chemical substance, Gene No. 1741 [1] | also measured
1 | Cc1c2ccccc2c(C)c2c1ccc1ccccc12 [TS047, 7,12-Dimethylbenz [a]anthracene] | − | − | − | − | − | − | − | − | − | + | + | − | − | − | − | − | − | − | − | − | Behavior of gene caused by administration of chemical substance, Gene No. 893 [1]: −; Behavior of gene caused by administration of chemical substance, Gene No. 6026 [1]: −; Behavior of gene caused by administration of chemical substance, Gene No. 154 [1]: −; Behavior of gene caused by administration of chemical substance, Gene No. 1993 [1]: −; Behavior of gene caused by administration of chemical substance, Gene No. 813 [1]: −; Behavior of gene caused by administration of chemical substance, Gene No. 2494 [1]: −; Behavior of gene caused by administration of chemical substance, Gene No. 2546 [1]: −; Behavior of gene caused by administration of chemical substance, Gene No. 3776 [1]: −; Behavior of gene caused by administration of chemical substance, Gene No. 3929 [1]: −; Behavior of gene caused by administration of chemical substance, Gene No. 1119 [1]: −; Behavior of gene caused by administration of chemical substance, Gene No. 6742 [1]: −; Behavior of gene caused by administration of chemical substance, Gene No. 5634 [1]: −; Behavior of gene caused by administration of chemical substance, Gene No. 5726 [1]: +; Liver carcinogenicity ([2]; in vivo): Cr−; Carcinogenicity ([3]; in vivo): C+; Mutagenicity by Ames test [4]: M+
2 | Cc1ccc2cc3c(ccc4ccccc43)c3c2c1CC3 [TS048, 3-Methylcholanthrene] | − | + | − | − | − | − | − | − | − | − | − | − | − | − | − | − | − | − | − | − | Behavior of gene caused by administration of chemical substance, Gene No. 893 [1]: −; Behavior of gene caused by administration of chemical substance, Gene No. 6026 [1]: −; Behavior of gene caused by administration of chemical substance, Gene No. 154 [1]: −; Behavior of gene caused by administration of chemical substance, Gene No. 1993 [1]: −; Behavior of gene caused by administration of chemical substance, Gene No. 813 [1]: −; Behavior of gene caused by administration of chemical substance, Gene No. 2494 [1]: −; Behavior of gene caused by administration of chemical substance, Gene No. 2546 [1]: −; Behavior of gene caused by administration of chemical substance, Gene No. 3776 [1]: −; Behavior of gene caused by administration of chemical substance, Gene No. 3929 [1]: −; Behavior of gene caused by administration of chemical substance, Gene No. 1119 [1]: −; Behavior of gene caused by administration of chemical substance, Gene No. 6742 [1]: −; Behavior of gene caused by administration of chemical substance, Gene No. 5634 [1]: +; Behavior of gene caused by administration of chemical substance, Gene No. 5726 [1]: +; Liver carcinogenicity ([2]; classification of the substance (Cr+/Cr−)): Cr−; Carcinogenicity ([3]; classification of the substance (C+/C−)): C+; Mutagenicity by Ames test [4]: M+
